Measured values: patent publication US20250188037A1, “N-(PYRROLIDIN-3-YL OR PIPERIDIN-4-YL)ACETAMIDE DERIVATIVES” (Takeda Pharmaceutical Company Limited, priority 2022, published 2025)

Assays:
SSTR4 [1] = molecular target: T1, SSTR4 (Homo sapiens (Human), UniProt P31391); test: Inhibition of forskolin stimulated cAMP in cells overexpressing SSTR4; type: cell-based; settings: inhibition of forskolin stimulated cAMP in CHO-K1 cells overexpressing SSTR4; read-out: SSTR4 Activity pEC50 (converted)
Method: Inhibition of Forskolin Stimulated cAMP in Cells Overexpressing SSTR4
This cell-based assay measures the ability of compounds to inhibit forskolin stimulated cAMP in CHO-K1 cells overexpressing SSTR4. CHO-K1 cells overexpressing SSTR4 (CHO-SSTR4) are purchased from DiscoveRx (product code 95-0059C2). The CHO-SSTR4 cells are maintained in F12K media with 10% Fetal Bovine Serum (Hyclone), 1% Pen/Strep (Life Technologies), and 800 μg/mL G418 (Life Technologies). […] The next day, the culture media is removed from the cells and the cells are washed (added then removed) with Krebs Ringer Buffer (ZenBio, KRB-1000 mL). […] The cells are incubated in 10 μL compound/stimulation buffer for 30 minutes at room temperature. Cellular cAMP levels are detected with a HTRF LANCE Ultra cAMP kit (Perkin Elmer, catalog number TRF0264).
The assay is performed in accordance with the manufacturer's instructions. […] of diluted Eu—W8044 labeled streptavidin (dilution: 1:50 in cAMP Detection Buffer) is added to each well. Then 5 μL of diluted biotin cAMP (dilution: 1:150 in cAMP Detection Buffer) is added to each well. The plates are covered and allowed to incubate for 60 minutes at room temperature on a shaker. […] The pEC50 values are generated using Activity Base for Screening Data Management.

SSTR1 = SSTR1 (Homo sapiens (Human), UniProt P30872);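 further: binding assay on CHO-K1 cell membranes overexpressing SSTR1, incubated 60 min at room temperature, bound fraction collected on filters and read by scintillation counting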
Sequence of SSTR1 (P30872 whole entry): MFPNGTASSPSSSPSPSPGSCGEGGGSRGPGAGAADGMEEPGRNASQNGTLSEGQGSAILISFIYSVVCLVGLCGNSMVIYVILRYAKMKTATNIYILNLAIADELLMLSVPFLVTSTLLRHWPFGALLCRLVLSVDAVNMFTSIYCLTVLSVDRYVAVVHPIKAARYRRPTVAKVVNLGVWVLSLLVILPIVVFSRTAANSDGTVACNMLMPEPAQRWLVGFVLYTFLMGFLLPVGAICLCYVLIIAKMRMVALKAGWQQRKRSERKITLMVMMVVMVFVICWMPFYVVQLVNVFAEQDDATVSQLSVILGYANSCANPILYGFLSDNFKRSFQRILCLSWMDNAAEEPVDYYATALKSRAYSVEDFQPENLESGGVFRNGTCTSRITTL
Method: Membranes from CHO-K1 cells overexpressing SSTR1 are purchased from Perkin Elmer (catalog number ES-520-M400UA). […] Then 10 μg of SSTR1 membranes in 50 μL assay buffer are added per well. The plate is incubated for 60 minutes at room temperature. […] The contents of the assay plate are transferred to filters with a TomTech harvester and washed 5 times with 20 mM HEPES, 100 mM NaCl. […] The scintillator sheets are melted to the filters using a heat block. The filters are then read in a MicroBeta scintillation counter. Binding Ki curves are generated using Activity Base for Screening Data Management and the results are reported as pIC50.

SSTR4 [2] = molecular target: T1, SSTR4; test: SSTR4 I-125 somatostatin competition binding assay; settings: for SSTR4 Binding pIC50: membranes from CHO-K1 cells overexpressing SSTR4
Source text: The scintillator sheets are melted to filters using a heat block.

T1 sequence (P31391 whole entry): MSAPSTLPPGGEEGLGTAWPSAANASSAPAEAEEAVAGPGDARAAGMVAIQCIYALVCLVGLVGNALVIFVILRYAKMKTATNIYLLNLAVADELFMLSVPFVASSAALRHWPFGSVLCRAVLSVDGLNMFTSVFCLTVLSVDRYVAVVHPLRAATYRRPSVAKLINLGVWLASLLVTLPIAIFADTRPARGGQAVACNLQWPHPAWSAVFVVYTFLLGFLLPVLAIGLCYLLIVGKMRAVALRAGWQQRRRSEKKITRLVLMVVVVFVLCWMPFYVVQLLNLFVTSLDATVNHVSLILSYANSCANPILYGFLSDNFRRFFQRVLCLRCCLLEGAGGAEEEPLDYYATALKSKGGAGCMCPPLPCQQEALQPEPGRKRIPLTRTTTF

Row | EC50 (SSTR4 [1]) [nM] | IC50 (SSTR1) [nM] | SSTR4 Binding pIC50 (SSTR4 [2]) | IC50 (SSTR4 [2]; membranes from CHO-K1 cells overexpressing SSTR4, read-out: SSTR4 Binding pIC50 (converted)) [nM] | SMILES
1 | 19.5 | > 50100 | 7.23 | – | Cc1ccccc1CC1(C(=O)N[C@H]2CCNC[C@@H]2F)CC1 [Example 24, N-((3S,4S)-3-fluoropiperidin-4-yl)-1-(2-methylbenzyl)cyclopropane-1-carboxamide]
2 | 182 | – | – | – | CC1CC(NC(=O)C2(Oc3ccccc3Cl)CC2)CCN1C (centres unmarked) [Example 8, 1-(2-chlorophenoxy)-N-(1,2-dimethylpiperidin-4-yl)cyclopropane-1-carboxamide]
3 | 117 | – | – | – | C[C@H]1CN(C)CC[C@@H]1NC(=O)C(F)(F)Oc1ccccc1 [Example 40, N-((3S,4S)-1,3-dimethylpiperidin-4-yl)-2,2-difluoro-2-phenoxyacetamide]
4 | 89.1 | – | – | – | C[C@@H]1CN(C)CC[C@H]1NC(=O)C1(Cc2ccccc2Cl)CC1 (relative stereo) [Example 17, 1-(2-chlorobenzyl)-N-(trans-1,3-dimethylpiperidin-4-yl)cyclopropane-1-carboxamide]
5 | 2 | 4680 | 7.58 | – | C[C@H]1CNCC[C@@H]1NC(=O)C1(Cc2ccc(Cl)cc2)CC1 [Example 18, 1-(4-chlorobenzyl)-N-((3S,4S)-3-methylpiperidin-4-yl)cyclopropane-1-carboxamide]
6 | 1.32 | 19100 | 7.25 | – | C[C@H]1CNCC[C@@H]1NC(=O)C(F)(F)Oc1ccccc1Cl [Example 64, 2-(2-chlorophenoxy)-2,2-difluoro-N-((3S,4S)-3-methylpiperidin-4-yl)acetamide]
7 | 178 | – | – | – | CC[C@@H]1CN(C)CC[C@H]1NC(=O)C1(Oc2ccccc2Cl)CC1 (relative stereo) [Example 7, 1-(2-chlorophenoxy)-N-(trans-3-ethyl-1-methylpiperidin-4-yl)cyclopropane-1-carboxamide]
8 | 10.2 | > 50100 | 7.25 | – | O=C(N[C@H]1CCNC[C@@H]1F)C1(Cc2cccc(Cl)c2)CC1 [Example 27, 1-(3-chlorobenzyl)-N-((3S,4S)-3-fluoropiperidin-4-yl)cyclopropane-1-carboxamide]
9 | 18.2 | > 50100 | 6.48 | – | O=C(NC1CCNCC1)C(F)(F)Oc1ccccc1Cl [Example 70, 2-(2-chlorophenoxy)-2,2-difluoro-N-(piperidin-4-yl)acetamide]
10 | 195 | – | – | – | CN1CCC(NC(=O)C(F)(F)Oc2ccccc2)CC1 [Example 28, 2,2-difluoro-N-(1-methylpiperidin-4-yl)-2-phenoxyacetamide]
11 | 50.1 | > 50100 | 5.49 | – | N#Cc1ccccc1OC(F)(F)C(=O)NC1CCNCC1 [Example 32, 2-(2-cyanophenoxy)-2,2-difluoro-N-(piperidin-4-yl)acetamide]
12 | 91.2 | > 50100 | 5.43 | – | C[C@H]1C[C@@H](NC(=O)C(F)(F)Oc2ccccc2)CCN1 [Example 48, 2,2-difluoro-N-((2S,4S)-2-methylpiperidin-4-yl)-2-phenoxyacetamide]
13 | 56.2 | > 50100 | 6.53 | – | C[C@@H]1C[C@H](NC(=O)C2(CN(C)c3cccc(Cl)n3)CC2)CCN1C [Example 41, 1-(((6-chloropyridin-2-yl)(methyl)amino)methyl)-N-((2R,4R)-1,2-dimethylpiperidin-4-yl)cyclopropane-1-carboxamide]
14 | 63.1 | > 50100 | 6.87 | – | O=C(N[C@H]1CCNC[C@@H]1F)C1(Cc2ccccc2F)CC1 [Example 43, 1-(2-fluorobenzyl)-N-((3S,4S)-3-fluoropiperidin-4-yl)cyclopropane-1-carboxamide]
15 | 141 | – | – | – | Cc1ccc(CC2(C(=O)N[C@@H]3CCN(C)C[C@H]3C)CC2)cc1 (relative stereo) [Example 11, N-(trans-1,3-dimethylpiperidin-4-yl)-1-(4-methylbenzyl)cyclopropane-1-carboxamide]
16 | 57.5 | – | – | 1320 | C[C@H]1C[C@@H](NC(=O)C(F)(F)Oc2ccccc2)CCN1 (relative stereo) [Example 50, 2,2-difluoro-N-(cis-2-methylpiperidin-4-yl)-2-phenoxyacetamide]
17 | 5.01 | 46800 | 6.77 | – | C[C@H]1CNCC[C@@H]1NC(=O)C(F)(F)Oc1ccc(F)cc1 [Example 58, 2,2-difluoro-2-(4-fluorophenoxy)-N-((3S,4S)-3-methylpiperidin-4-yl)acetamide]

Row | EC50 (SSTR4 [1]) [nM] | IC50 (SSTR1) [nM] | SSTR4 Binding pIC50 (SSTR4 [2]) | IC50 (SSTR4 [2]; membranes from CHO-K1 cells overexpressing SSTR4, read-out: SSTR4 Binding pIC50 (converted)) [nM] | SMILES
18 | 123 | – | – | – | CC(Oc1cccc(Cl)c1Cl)C(=O)N[C@H]1CCNC[C@@H]1F (stereo partly drawn) [Example 61, 2-(2,3-dichlorophenoxy)-N-((3S,4S)-3-fluoropiperidin-4-yl)propanamide]
19 | 67.6 | > 50100 | 6.39 | – | O=C(NC1CCNCC1)C(F)(F)Oc1ccccc1 [Example 14, 2,2-difluoro-2-phenoxy-N-(piperidin-4-yl)acetamide]
20 | 35.5 | > 50100 | 5.53 | – | C[C@@H]1C[C@H](NC(=O)C(F)(F)Oc2ccccc2)CCN1 [Example 51, 2,2-difluoro-N-((2R,4R)-2-methylpiperidin-4-yl)-2-phenoxyacetamide]
21 | 174 | – | – | – | O=C(N[C@H]1CCNC[C@@H]1F)C1(Oc2ccccc2C2CC2)CC1 [Example 60, 1-(2-cyclopropylphenoxy)-N-((3S,4S)-3-fluoropiperidin-4-yl)cyclopropane-1-carboxamide]
22 | 55 | > 50100 | 5.43 | – | C[C@H]1C[C@H](NC(=O)C(F)(F)Oc2ccccc2)CCN1 [Example 53, 2,2-difluoro-N-((2S,4R)-2-methylpiperidin-4-yl)-2-phenoxyacetamide]
23 | 182 | – | – | – | O=C(NC1CCN2CCCC12)C1(Oc2ccccc2Cl)CC1 (centres unmarked) [Example 9, 1-(2-chlorophenoxy)-N-(hexahydro-1H-pyrrolizin-1-yl)cyclopropane-1-carboxamide]
24 | 42.7 | – | – | – | CC[C@@H]1CN(C)CC[C@H]1NC(=O)C1(Cc2cccc(C)c2)CC1 (relative stereo) [Example 21, N-(trans-3-ethyl-1-methylpiperidin-4-yl)-1-(3-methylbenzyl)cyclopropane-1-carboxamide]
25 | 23.4 | 4680 | 6.56 | – | C[C@H]1CN(C)CC[C@@H]1NC(=O)C1(Cc2cccc(Cl)c2)CC1 [Example 36, 1-(3-chlorobenzyl)-N-((3S,4S)-1,3-dimethylpiperidin-4-yl)cyclopropane-1-carboxamide]
26 | 77.6 | – | – | – | C[C@@H]1CN(C)CC[C@H]1NC(=O)C1(Cc2cccc(F)c2)CC1 (relative stereo) [Example 20, N-(trans-1,3-dimethylpiperidin-4-yl)-1-(3-fluorobenzyl)cyclopropane-1-carboxamide]
27 | 16.6 | > 50100 | 6.79 | – | C[C@H]1CNCC[C@@H]1NC(=O)C(F)(F)Oc1ccccc1C#N [Example 33, 2-(2-cyanophenoxy)-2,2-difluoro-N-((3S,4S)-3-methylpiperidin-4-yl)acetamide]
28 | 14.1 | – | – | – | Cc1ccccc1CC1(C(=O)N[C@H]2CCN(C)C[C@@H]2C)CC1 [Example 38, N-((3S,4S)-1,3-dimethylpiperidin-4-yl)-1-(2-methylbenzyl)cyclopropane-1-carboxamide]
29 | 132 | – | – | – | CC(Oc1ccccc1Cl)C(=O)N[C@@H]1CCN(C)[C@H](C)C1 (stereo partly drawn) [Example 67, 2-(2-chlorophenoxy)-N-((2R,4R)-1,2-dimethylpiperidin-4-yl)propanamide]
30 | 170 | – | – | – | C[C@@H]1C[C@@H](NC(=O)C(F)(F)Oc2ccccc2)CCN1 [Example 52, 2,2-difluoro-N-((2R,4S)-2-methylpiperidin-4-yl)-2-phenoxyacetamide]
31 | 20.4 | – | – | – | O=C(N[C@H]1CCNC[C@@H]1F)C1(Cc2cccc(F)c2)CC1 [Example 44, 1-(3-fluorobenzyl)-N-((3S,4S)-3-fluoropiperidin-4-yl)cyclopropane-1-carboxamide]
32 | 58.9 | – | – | – | O=C(N[C@H]1CCNC[C@@H]1F)C1(Oc2cccc(Cl)c2)CC1 [Example 59, 1-(3-chlorophenoxy)-N-((3S,4S)-3-fluoropiperidin-4-yl)cyclopropane-1-carboxamide]
33 | 34.7 | – | – | – | Cc1cccc(CC2(C(=O)NC3CN(C)CC3c3ccccc3)CC2)c1 (centres unmarked) [Example 2, N-(1-methyl-4-phenylpyrrolidin-3-yl)-1-(3-methylbenzyl)cyclopropane-1-carboxamide]
34 | 102 | – | – | – | CN1CC[C@H](NC(=O)C2(Cc3ccc(Cl)cc3)CC2)[C@@H](F)C1 [Example 39, 1-(4-chlorobenzyl)-N-((3S,4S)-3-fluoro-1-methylpiperidin-4-yl)cyclopropane-1-carboxamide]
